According to the supplement of paper PMC10307832:

How the values were obtained:
Assay in all cases: relative viability (nuclei count vs DMSO), 5 days (fraction); higher = more cells survive
[1] = compound: C1CC(C2=C(C1)C3=C(N2)C=CC(=C3)Cl)C(=O)N [Selisistat] + CC1(C)CCC(c2ccc(Cl)cc2)=C(CN2CCN(c3ccc(C(=O)NS(=O)(=O)c4ccc(N[C@H](CCN5CCOCC5)CSc5ccccc5)c(S(=O)(=O)C(F)(F)F)c4)cc3)CC2)C1 [Navitoclax] (partner 0.5 µM)
Method in brief: (§1)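 For relative viability, nuclei counts in treated wells were divided by those in vehicle wells. Lung cancer cell lines had been pin-tool dosed in 1536-well plates the day after seeding and cultured for 5 days, then fixed and stained in one step (final 0.05% Triton X-100, 1% formaldehyde, 1 ug/ml Hoechst) and imaged at 4×. Doses were one drug alone or a fixed anchor-drug dose plus five library-drug doses (not always all listed) in √10 steps, and values are duplicate-plate medians.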

[2] = compound: C1CC(C2=C(C1)C3=C(N2)C=CC(=C3)Cl)C(=O)N [Selisistat] + CS(=O)(=O)CCNCc1ccc(-c2ccc3ncnc(Nc4ccc(OCc5cccc(F)c5)c(Cl)c4)c3c2)o1 [Lapatinib] (partner 2 µM)
Method in brief: as §1

[3] = compound: c1ccc2c(CCNc3ccc(Nc4ccncc4)cc3)c[nH]c2c1 [Serdemetan] + CCNC(=O)c1noc(-c2cc(C(C)C)c(O)cc2O)c1-c1ccc(CN2CCOCC2)cc1 [Luminespib] (partner 0.01 µM)
Method in brief: as §1

[4] = compound: c1ccc2c(CCNc3ccc(Nc4ccncc4)cc3)c[nH]c2c1 [Serdemetan] + Cc1nc(Nc2ncc(C(=O)Nc3c(C)cccc3Cl)s2)cc(N2CCN(CCO)CC2)n1 [Dasatinib] (partner 0.075 µM)
Method in brief: as §1

Cell Line | relative viability ([1]; first compound 0.4 µM) | relative viability ([1]; first compound 1.265 µM) | relative viability ([1]; first compound 4 µM) | relative viability ([1]; first compound 12.65 µM) | relative viability ([1]; first compound 40 µM) | relative viability ([2]; first compound 0.4 µM) | relative viability ([2]; first compound 1.265 µM) | relative viability ([2]; first compound 4 µM) | relative viability ([2]; first compound 12.65 µM) | relative viability ([2]; first compound 40 µM) | relative viability ([3]; first compound 0.04 µM) | relative viability ([3]; first compound 0.1265 µM) | relative viability ([3]; first compound 0.4 µM) | relative viability ([3]; first compound 1.265 µM) | relative viability ([3]; first compound 4 µM) | relative viability ([4]; first compound 0.04 µM) | relative viability ([4]; first compound 0.1265 µM) | relative viability ([4]; first compound 0.4 µM) | relative viability ([4]; first compound 1.265 µM) | relative viability ([4]; first compound 4 µM)
NCI-H2087 | 1.13 | 0.99 | 1.02 | 0.926 | 0.779 | 1 | 1.13 | 0.653 | 0.946 | 1.03 | 0.176 | 0.147 | 0.168 | 0.184 | 0.123 | 0.979 | 0.712 | 0.763 | 0.418 | 0.27
LC-2-ad | 0.514 | 0.475 | 0.507 | 0.485 | 0.561 | 1.01 | 0.968 | 0.803 | 0.833 | 1.04 | 0.951 | 0.944 | 0.969 | 0.898 | 0.899 | 0.495 | 0.634 | 0.519 | 0.501 | 0.475
NCI-H1915 | 0.782 | 0.776 | 0.83 | 0.797 | 0.804 | 0.967 | 0.969 | 0.918 | 0.897 | 1.02 | 0.74 | 0.73 | 0.672 | 0.514 | 0.532 | 0.3 | 0.316 | 0.314 | 0.287 | 0.302
NCI-H1793 | 0.446 | 0.326 | – | 0.472 | 0.545 | 0.793 | 0.636 | – | 0.816 | 0.816 | 0.17 | 0.186 | 0.343 | 0.169 | 0.165 | 0.355 | 0.308 | 0.383 | 0.21 | 0.259
NCI-H2023 | 1.03 | 0.986 | 0.989 | 0.948 | 0.92 | 0.703 | 0.812 | 0.537 | 0.859 | 0.758 | 0.818 | 0.857 | 0.721 | 0.334 | 0.193 | 0.521 | 0.674 | 0.532 | 0.43 | 0.233
COR-L 105 | 0.635 | 0.763 | 0.671 | 0.815 | 0.823 | 0.298 | 0.338 | 0.371 | 0.378 | 0.31 | 1.3 | 0.911 | 0.64 | 0.693 | 0.588 | 0.326 | 0.351 | 0.306 | 0.319 | 0.337
RERF-LC-KJ | 0.812 | 1.1 | 0.84 | 0.702 | 0.627 | 0.857 | 0.854 | 0.793 | 0.811 | 0.831 | 1.43 | 1.16 | 1.17 | 1.1 | 1.12 | 0.837 | 0.788 | 0.667 | 0.657 | 0.69
LXF-289 | 0.95 | 0.966 | 0.895 | 0.901 | 0.92 | 0.913 | 0.949 | 0.926 | 0.864 | 0.921 | 0.636 | 0.706 | 0.625 | 0.517 | 0.401 | 0.231 | 0.197 | 0.199 | 0.202 | 0.185
